From US20230242530A1, “8-(AZETIDIN-1-YL)-[1,2,4]TRIAZOLO[1,5-A]PYRIDINYL COMPOUNDS, COMPOSITIONS AND METHODS OF USE THEREOF” (Genentech, Inc., priority 2016, published 2023)

Key:
[1] = molecular target: T1, isolated recombinant JAK1 kinase domain (Homo sapiens, UniProt P23458); test: JAK enzyme assay, JAK1 kinase domain (Caliper LabChip); type: biochemical; conditions: 1.5 nM JAK1, ATP 25 μM, Morrison tight binding model
T1 construct: isolated recombinant JAK1 and JAK2 kinase domain
How it was run: (§1)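 Ki values were obtained by Morrison tight-binding analysis with ATP-competitive correction, Ki=Ki,app/(1+[ATP]/Km,app). Phosphorylated versus total fluorescent JAK3-derived peptide was quantified on a Caliper LabChip. Kinase reactions with the isolated recombinant domains ran 30 min at 22 °C before EDTA quench (50 mM final).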

[2] = molecular target: T2, isolated recombinant JAK2 kinase domain (Homo sapiens, UniProt O60674); test: JAK enzyme assay, JAK2 kinase domain (Caliper LabChip); type: biochemical; conditions: 0.2 nM JAK2, ATP 25 μM, Morrison tight binding model
T2 construct: isolated recombinant JAK1 and JAK2 kinase domain
How it was run: as §1

[3] = tested on: JAK1-dependent STAT6 phosphorylation downstream of IL-13 stimulation in BEAS-2B cells; test: JAK1 pathway assay in cell lines: IL-13 p-STAT6 BEAS-2B; type: cell-based; conditions: BEAS-2B human bronchial epithelial cells, 1 hr compound, IL-13 15 min, MSD readout
How it was run: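 Phospho-STAT6 read by MSD electrochemiluminescence in lysates of BEAS-2B cells kept in complete growth medium. Cells were pretreated 1 hr at 37 °C with compound (0.2% DMSO final) and stimulated 15 min with IL-13 at its EC90; EC50 is the concentration halving signal versus DMSO.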

T1 sequence (P23458 875-1153 limits assumed): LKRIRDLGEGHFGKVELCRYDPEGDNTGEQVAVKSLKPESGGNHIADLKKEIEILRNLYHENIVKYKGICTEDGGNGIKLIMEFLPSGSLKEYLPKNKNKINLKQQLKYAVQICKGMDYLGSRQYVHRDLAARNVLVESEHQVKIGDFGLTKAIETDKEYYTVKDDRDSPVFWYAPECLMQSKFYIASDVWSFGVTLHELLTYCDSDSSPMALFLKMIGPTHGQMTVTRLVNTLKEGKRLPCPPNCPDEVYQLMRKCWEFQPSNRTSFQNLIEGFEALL
T2 sequence (O60674 849-1124 limits assumed): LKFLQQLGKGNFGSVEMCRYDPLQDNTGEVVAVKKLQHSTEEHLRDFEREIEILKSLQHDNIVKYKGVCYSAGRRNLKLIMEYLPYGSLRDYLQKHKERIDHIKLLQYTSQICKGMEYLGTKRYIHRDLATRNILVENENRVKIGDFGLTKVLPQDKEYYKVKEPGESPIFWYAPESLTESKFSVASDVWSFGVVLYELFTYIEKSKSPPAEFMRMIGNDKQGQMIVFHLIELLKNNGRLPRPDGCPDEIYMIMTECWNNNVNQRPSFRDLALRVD

| Compound | Ki [1] [nM] | Ki [2] [nM] | EC50 [3] [nM] |
| --- | --- | --- | --- |
| CCc1cnn(C2(CC#N)CN(c3cccn4nc(Nc5cnn(CC(=O)N6CCC(N(C)C7COC7)CC6)c5)nc34)C2)c1 [Example 34, 2-[3-(4-ethylpyrazol-1-yl)-1-[2-[[1-[2-[4-[methyl(oxetan-3-yl)amino]-1-piperidyl]-2-oxo-ethyl]pyrazol-4-yl]amino]-[1,2,4]triazolo[1,5-a]pyridin-8-yl]azetidin-3-yl]acetonitrile] | 0.4 | 0.3 | 15 |
| CCc1cnn(C2(CC#N)CN(c3cccn4nc(Nc5cnn(CC(=O)N6CCN(C7CCOCC7)CC6)c5)nc34)C2)c1 [Example 31, 2-[3-(4-ethylpyrazol-1-yl)-1-[2-[[1-[2-oxo-2-(4-tetrahydropyran-4-ylpiperazin-1-yl)ethyl]pyrazol-4-yl]amino]-[1,2,4]triazolo[1,5-a]pyridin-8-yl]azetidin-3-yl]acetonitrile] | 0.4 | 1.1 | 19 |
| CCc1cnn(C2(CC#N)CN(c3cccn4nc(Nc5ccc6c(c5)CCN([C@@H]5CCOC5)C6)nc34)C2)c1 (stereo in doubt) [Example 61, 2-[3-(4-ethylpyrazol-1-yl)-1-[2-[[2-[rac-(3R)-tetrahydrofuran-3-yl]-3,4-dihydro-1H-isoquinolin-6-yl]amino]-[1,2,4]triazolo[1,5-a]pyridin-8-yl]azetidin-3-yl]acetonitrile] | 0.4 | 0.4 | 8 |
| N#CCC1(c2cccc(Cl)c2)CN(c2cccn3nc(Nc4cnn(CC(=O)N5CCC(N6CCOCC6)CC5)c4)nc23)C1 [Example 72, 2-[3-(3-chlorophenyl)-1-[2-[[1-[2-(4-morpholino-1-piperidyl)-2-oxo-ethyl]pyrazol-4-yl]amino]-[1,2,4]triazolo[1,5-a]pyridin-8-yl]azetidin-3-yl]acetonitrile] | 0.6 | 0.6 | 24 |
| CN1CCN(C(=O)Cn2cc(Nc3nc4c(N5CC(CC#N)(c6cccc(Cl)c6)C5)cccn4n3)cn2)CC1 [Example 35, 2-[3-(3-chlorophenyl)-1-[2-[[1-[2-(4-methylpiperazin-1-yl)-2-oxo-ethyl]pyrazol-4-yl]amino]-[1,2,4]triazolo[1,5-a]pyridin-8-yl]azetidin-3-yl]acetonitrile] | 0.8 | 2.8 | 39 |
| CCc1cnn(C2(CC#N)CN(c3cccn4nc(Nc5ccc(C(=O)N6CC7(CCN(C8COC8)CC7)C6)cc5)nc34)C2)c1 [Example 86, 2-[3-(4-ethylpyrazol-1-yl)-1-[2-[4-[7-(oxetan-3-yl)-2,7-diazaspiro[3.5]nonane-2-carbonyl]anilino]-[1,2,4]triazolo[1,5-a]pyridin-8-yl]azetidin-3-yl]acetonitrile] | 0.2 | 0.2 | 11 |
| Cc1cc(Cl)ccc1C1(CC#N)CN(c2cccn3nc(Nc4cnn(CC(=O)N5CCN(C)CC5)c4)nc23)C1 [Example 24, 2-[3-(4-chloro-2-methyl-phenyl)-1-[2-[[1-[2-(4-methylpiperazin-1-yl)-2-oxo-ethyl]pyrazol-4-yl]amino]-[1,2,4]triazolo[1,5-a]pyridin-8-yl]azetidin-3-yl]acetonitrile] | 0.4 | 2.3 | 87 |
| CN1CCN(C(=O)Cn2cc(Nc3nc4c(N5CC(CC#N)(N6CCN(C)CC6)C5)cccn4n3)cn2)CC1 [Example 9, 2-[3-(4-methylpiperazin-1-yl)-1-[2-[[1-[2-(4-methylpiperazin-1-yl)-2-oxo-ethyl]pyrazol-4-yl]amino]-[1,2,4]triazolo[1,5-a]pyridin-8-yl]azetidin-3-yl]acetonitrile] | 0.6 | 2.5 | 34 |
| CCc1cnn(C2(CC#N)CN(c3cccn4nc(Nc5ccc(C(=O)NCCN6CCOCC6)cc5)nc34)C2)c1 [Example 66, 4-[[8-[3-(cyanomethyl)-3-(4-ethylpyrazol-1-yl)azetidin-1-yl]-[1,2,4]triazolo[1,5-a]pyridin-2-yl]amino]-N-(2-morpholinoethyl)benzamide] | 0.3 | 0.5 | 31 |
| Cc1ccccc1-c1cnn(C2(CC#N)CN(c3cccn4nc(Nc5cnn(CC(=O)N6CCN(C)CC6)c5)nc34)C2)c1 [Example 63] | 0.2 | 0.2 | 13 |
| CN1CCN(C(=O)Cn2cc(Nc3nc4c(N5CC(CC#N)(n6cc(-c7ccccc7)cn6)C5)cccn4n3)cn2)CC1 [Example 21, formic acid;2-[1-[2-[[1-[2-(4-methylpiperazin-1-yl)-2-oxo-ethyl]pyrazol-4-yl]amino]-[1,2,4]triazolo[1,5-a]pyridin-8-yl]-3-(4-phenylpyrazol-1-yl)azetidin-3-yl]acetonitrile] | 1.1 | 7.7 | 43 |
| CCc1cnn(C2(CC#N)CN(c3cccn4nc(Nc5cnn(CC(=O)N6CCC(N7CCOCC7)CC6)c5)nc34)C2)c1 [Example 29, 2-[3-(4-ethylpyrazol-1-yl)-1-[2-[[1-[2-(4-morpholino-1-piperidyl)-2-oxo-ethyl]pyrazol-4-yl]amino]-[1,2,4]triazolo[1,5-a]pyridin-8-yl]azetidin-3-yl]acetonitrile] | 0.6 | 2.1 | 78 |

More lines, main results first:

| Ki [1] [nM] | Ki [2] [nM] | Compound | EC50 [3] [nM] |
| --- | --- | --- | --- |
| 0.6 | 1.7 | CCc1cnn(C2(CC#N)CN(c3cccn4nc(Nc5cnn(CC(=O)N(C)C)c5)nc34)C2)c1 [Example 143, 2-[4-[[8-[3-(cyanomethyl)-3-(4-ethylpyrazol-1-yl)azetidin-1-yl]-[1,2,4]triazolo[1,5-a]pyridin-2-yl]amino]pyrazol-1-yl]-N,N-dimethyl-acetamide] | 31 |
| 0.2 | 0.3 | CC(C)c1cnn(C2(CC#N)CN(c3cccn4nc(Nc5cnn(C)c5)nc34)C2)c1 [Example 138, 2-[3-(4-isopropylpyrazol-1-yl)-1-[2-[(l-methylpyrazol-4-yl)amino]-[1,2,4]triazolo[1,5-a]pyridin-8-yl]azetidin-3-yl]acetonitrile] | 16 |
| 0.3 | 0.2 | CSc1cnn(C2(CC#N)CN(c3cccn4nc(Nc5cnn(CC(=O)N6CCN(C)CC6)c5)nc34)C2)c1 [Example 119] | 16 |
| 0.5 | 1.3 | CCc1cnn(C2(CC#N)CN(c3cccn4nc(Nc5ccc(C(=O)N6CCN(C)CC6)c(OC)c5)nc34)C2)c1 [Example 106, 2-[3-(4-ethylpyrazol-1-yl)-1-[2-[3-methoxy-4-(4-methylpiperazine-1-carbonyl)anilino]-[1,2,4]triazolo[1,5-a]pyridin-8-yl]azetidin-3-yl]acetonitrile] | 40 |
| 0.8 | 0.9 | CN1CCN(C(=O)c2cccc(Nc3nc4c(N5CC(CC#N)(n6cc(C(F)(F)F)cn6)C5)cccn4n3)c2)CC1 [Example 110, formic acid;2-[1-[2-[3-(4-methylpiperazine-1-carbonyl)anilino]-[1,2,4]triazolo[1,5-a]pyridin-8-yl]-3-[4-(trifluoromethyl)pyrazol-1-yl]azetidin-3-yl]acetonitrile] | 100 |
| 0.2 | 0.4 | N#CCC1(n2cc(C(F)(F)F)cn2)CN(c2cccn3nc(Nc4cn[nH]c4)nc23)C1 [Example 131, 2-[1-[2-(1H-pyrazol-4-ylamino)-[1,2,4]triazolo[1,5-a]pyridin-8-yl]-3-[4-(trifluoromethyl)pyrazol-1-yl]azetidin-3-yl]acetonitrile] | 43 |
| 0.3 | 0.2 | CN1CCN(C(=O)Cn2cc(Nc3nc4c(N5CC(CC#N)(c6ccccc6)C5)cccn4n3)cn2)CC1 [Example 101] | 16 |
| 2 | 4 | N#CCC1(c2cccc(Cl)c2)CN(c2cccn3nc(Nc4cnn(CC(=O)N5CCC(NCC6(C#N)CC6)CC5)c4)nc23)C1 [Example 99, 1-[[[1-[2-[4-[[8-[3-(3-chlorophenyl)-3-(cyanomethyl)azetidin-1-yl]-[1,2,4]triazolo[1,5-a]pyridin-2-yl]amino]pyrazol-1-yl]acetyl]-4-piperidyl]amino]methyl]cycl opropanecarbonitrile] | 71 |
| 0.2 | 0.4 | CCc1cnn(C2(CC#N)CN(c3cccn4nc(Nc5cnn(C)c5)nc34)C2)c1 [Example 127, 2-(3-(4-ethyl-1H-pyrazol-1-yl)-1-(2-((1-methyl-H-pyrazol-4-yl)amino)-[1,2,4]triazolo[1,5-a]pyridin-8-yl)azetidin-3-yl)acetonitrile] | 10 |
| 0.1 | 0.1 | CC(C)c1cnn(C2(CC#N)CN(c3cccn4nc(Nc5cn[nH]c5)nc34)C2)c1 [Example 141, 2-[3-(4-isopropylpyrazol-1-yl)-1-[2-(1H-pyrazol-4-ylamino)-[1,2,4]triazolo[1,5-a]pyridin-8-yl]azetidin-3-yl]acetonitrile] | 9 |
| 0.4 | 0.5 | Cn1cc(Nc2nc3c(N4CC(CC#N)(n5cc(C6CC6)cn5)C4)cccn3n2)cn1 [Example 142, 2-[3-(4-cyclopropylpyrazol-1-yl)-1-[2-[(l-methylpyrazol-4-yl)amino]-[1,2,4]triazolo[1,5-a]pyridin-8-yl]azetidin-3-yl]acetonitrile] | 14 |
